From patent US11236120B2, “Azithromycin derivatives with epithelial barrier enhancement properties” (EpiEndo Pharmaceuticals ehf, priority 2015, dated 2022)
In brackets after ≈: the same amount, converted by molar mass.

How the values were obtained:
[1] = Solubility in 10 mM phosphate buffer (pH 7.4); format: physicochemical; settings: pH 7.4, aqueous buffer, kinetic from dmso stock, 60 minutes at room temperature, filtered, read-out: MTS Solubility in Buffer (pH 7.4)
Description: Solubility in 10 mM Phosphate Buffer (pH 7.4)
The solubility sample testing of the compounds was performed by in phosphate buffer at pH 7.4 and using HPLC-MS detection. A stock solution of […] in DMSO was prepared for each compound. For the solubility test sample, 100 μL of the stock solution was diluted with 3.9 mL of a 10 mM phosphate buffer at […] to a final concentration of […]. The buffer solution was left to stand for 60 minutes at room temperature and then filtered. The filtrate was analyzed against two calibration points of the same analyte prepared at […] using HPLC-MS. These calibration points were prepared from the same stock solution as the solubility sample by diluting it with DMSO:H2O (1:1) 1:40 and then again 1:10. The chromatographic signal area of the analyte in the solubility sample was then compared to the chromatographic signal area of the two calibration samples.
(§1) The chromatographic separation was performed on a Waters HPLC-MS system using a 50×2.1 mm×Bridge C18 column and a gradient elution of Water with 0.1% formic acid and acetonitrile with 0.1% formic acid. The analytes were analyzed in positive electro-spray mode using the (M+H)^+ in single ion recording.

[2] = Stability in human plasma; format: in vitro ADME; settings: room temperature
Description: (§2) Stability in Mouse and Human Plasma
(§3) The stability of the compounds in mouse and human plasma was performed using protein precipitation as sample clean-up and HPLC-MS detection. The plasma stability studies of the compounds was performed at room temperature for up to 4 hours. A stock solution of […] in DMSO was prepared for each compound. For the plasma stability samples, 100 μL of the stock solution was diluted with 3.9 mL of either mouse or human plasma to a final concentration of […]. The plasma was left to equilibrate for 10 minutes at room temperature before the first analysis. For each analyzed time point ([…]) a 100 μL aliquot of the plasma was removed and protein precipitation (PPT) was performed on the aliquot by adding 900 μL of (ACN:DMSO) 95:5. The precipitated sample was shaken for 60 seconds and then centrifuged. The supernatant was transferred to an HPLC vial and analyzed using HPLC-MS. The chromatographic signal area of the samples at the different time points were then compared against each other, by setting the initial analysis at t=0 min as 100% and then calculating the %-value for each subsequent time point.
as §1

[3] = Stability in mouse plasma; format: in vitro ADME; settings: room temperature
Description: as §2, §3, §1

Compound | solubility at 60 min [1] [µM] | Degradation in Human Plasma at RT [2] | Degradation in Mouse Plasma at RT [3]
CC[C@H]1OC(=O)[C@H](C)[C@@H](O)[C@H](C)[C@@H](O[C@@H]2O[C@H](C)C[C@H](N(C)C(=O)c3ccccc3)[C@H]2O)[C@](C)(O)C[C@@H](C)CN(C)[C@H](C)[C@@H](O)[C@]1(C)O [Example 7, N-[(2S,3R,4S,6R)-2-[[(2R,3S,4R,5R,8R,10R,11R,12S,13S,14R)-2-ethyl-3,4,10,13-tetrahydroxy-3,5,6,8,10,12,14-heptamethyl-15-oxo-1-oxa-6-azacyclopentadec-11-yl]oxy]-3-hydroxy-6-methyl-tetrahydropyran-4-yl]-N-methyl-benzamide] | 0.23 (≈ 0.157 µg/mL) | Stable | –
CC[C@H]1OC(=O)[C@H](C)[C@@H](O)[C@H](C)[C@@H](O[C@@H]2O[C@H](C)C[C@H](N(C)C)[C@H]2OC(=O)c2ccc(-c3ccc(S(C)(=O)=O)cc3)cc2)[C@](C)(O)C[C@@H](C)CN(C)[C@H](C)[C@@H](O)[C@]1(C)O [Example 12, [(2S,3R,4S,6R)-4-(dimethylamino)-2-[[(2R,3S,4R,5R,8R,10R,11R,12S,13S,14R)-2-ethyl-3,4,10,13-tetrahydroxy-3,5,6,8,10,12,14-heptamethyl-15-oxo-1-oxa-6-azacyclopentadec-11-yl]oxy]-6-methyl-tetrahydropyran-3-yl]4-(4-methylsulfonylphenyl) benzoate] | 0.3 (≈ 0.255 µg/mL) | 2 % per hour | 2 % per hour
CC[C@H]1OC(=O)[C@H](C)[C@@H](O)[C@H](C)[C@@H](O[C@@H]2O[C@H](C)C[C@H](N(C)C)[C@H]2OC(=O)CCC(=O)O)[C@](C)(O)C[C@@H](C)CN(C)[C@H](C)[C@@H](O)[C@]1(C)O [Example 17, 4-[(2S,3R,4S,6R)-4-(dimethylamino)-2-[[(2R,3S,4R,5R,8R,10R,11R,12S,13S,14R)-2-ethyl-3,4,10,13-tetrahydroxy-3,5,6,8,10,12,14-heptamethyl-15-oxo-1-oxa-6-azacyclopentadec-11-yl]oxy]-6-methyl-tetrahydropyran-3-yl]oxy-4-oxo-butanoic acid] | 0.66 (≈ 0.456 µg/mL) | 20 % per hour | ca. 20% per hour
CC[C@H]1OC(=O)[C@H](C)[C@@H](O)[C@H](C)[C@@H](O[C@@H]2O[C@H](C)C[C@H](N(C)C(=O)CCC(=O)O)[C@H]2O)[C@](C)(O)C[C@@H](C)CN(C)[C@H](C)[C@@H](O)[C@]1(C)O [Example 18, 4-[[(2S,3R,4S,6R)-2-[[(2R,3S,4R,5R,8R,10R,11R,12S,13S,14R)-2-ethyl-3,4,10,13-tetrahydroxy-3,5,6,8,10,12,14-heptamethyl-15-oxo-1-oxa-6-azacyclopentadec-11-yl]oxy]-3-hydroxy-6-methyl-tetrahydropyran-4-yl]-methyl-amino]-4-oxo-butanoic acid] | 0.4 (≈ 0.271 µg/mL) | Stable | –
CCc1ccc(C(=O)O[C@H]2[C@H](O[C@@H]3[C@@H](C)[C@H](O)[C@@H](C)C(=O)O[C@H](CC)[C@@](C)(O)[C@H](O)[C@@H](C)N(C)C[C@H](C)C[C@@]3(C)O)O[C@H](C)C[C@@H]2N(C)C)cc1 [Example 22, [(2S,3R,4S,6R)-4-(dimethylamino)-2-[[(2R,3S,4R,5R,8R,10R,11R,12S,13S,14R)-2-ethyl-3,4,10,13-tetrahydroxy-3,5,6,8,10,12,14-heptamethyl-15-oxo-1-oxa-6-azacyclopentadec-11-yl]oxy]-6-methyl-tetrahydropyran-3-yl]4-ethylbenzoate] | 1.43 (≈ 1.03 µg/mL) | Stable | Stable
CC[C@H]1OC(=O)[C@H](C)[C@@H](O)[C@H](C)[C@@H](O[C@@H]2O[C@H](C)C[C@H](N(C)C)[C@H]2OC(=O)c2ccc3ccccc3c2)[C@](C)(O)C[C@@H](C)CN(C)[C@H](C)[C@@H](O)[C@]1(C)O [Example 24, [(2S,3R,4S,6R)-4-(dimethylamino)-2-[[(2R,3S,4R,5R,8R,10R,11R,12S,13S,14R)-2-ethyl-3,4,10,13-tetrahydroxy-3,5,6,8,10,12,14-heptamethyl-15-oxo-1-oxa-6-azacyclopentadec-11-yl]oxy]-6-methyl-tetrahydropyran-3-yl]naphthalene-2-carboxylate] | 2.4 (≈ 1.79 µg/mL) | Stable | Stable
CC[C@H]1OC(=O)[C@H](C)[C@@H](O)[C@H](C)[C@@H](O[C@@H]2O[C@H](C)C[C@H](N(C)C(=O)COCc3ccccc3)[C@H]2O)[C@](C)(O)C[C@@H](C)CN(C)[C@H](C)[C@@H](O)[C@]1(C)O [Example 26, 2-benzyloxy-N-[(2S,3R,4S,6R)-2-[[(2R,3S,4R,5R,8R,10R,11R,12S,13S,14R)-2-ethyl-3,4,10,13-tetrahydroxy-3,5,6,8,10,12,14-heptamethyl-15-oxo-1-oxa-6-azacyclopentadec-11-yl]oxy]-3-hydroxy-6-methyl-tetrahydropyran-4-yl]-N-methyl-acetamide] | 0.3 (≈ 0.217 µg/mL) | Stable | 4 % per hour
CC[C@H]1OC(=O)[C@H](C)[C@@H](O)[C@H](C)[C@@H](O[C@@H]2O[C@H](C)C[C@H](N(C)C(=O)CNC(=O)OCc3ccccc3)[C@H]2O)[C@](C)(O)C[C@@H](C)CN(C)[C@H](C)[C@@H](O)[C@]1(C)O [Example 27, Benzyl N-[2-[[(2S,3R,4S,6R)-2-[[(2R,3S,4R,5R,8R,10R,11R,12S,13S,14R)-2-ethyl-3,4,10,13-tetrahydroxy-3,5,6,8,10,12,14-heptamethyl-15-oxo-1-oxa-6-azacyclopentadec-11-yl]oxy]-3-hydroxy-6-methyl-tetrahydropyran-4-yl]-methyl-amino]-2-oxo-ethyl]carbamate] | 0.3 (≈ 0.23 µg/mL) | Stable | 3 % per hour
CC[C@H]1OC(=O)[C@H](C)[C@@H](O)[C@H](C)[C@@H](O[C@@H]2O[C@H](C)C[C@H](N(C)C(=O)CCOc3ccccc3)[C@H]2O)[C@](C)(O)C[C@@H](C)CN(C)[C@H](C)[C@@H](O)[C@]1(C)O [Example 28, N-[(2S,3R,4S,6R)-2-[[(2R,3S,4R,5R,8R,10R,11R,12S,13S,14R)-2-ethyl-3,4,10,13-tetrahydroxy-3,5,6,8,10,12,14-heptamethyl-15-oxo-1-oxa-6-azacyclopentadec-11-yl]oxy]-3-hydroxy-6-methyl-tetrahydropyran-4-yl]-N-methyl-3-phenoxy-propanamide] | 1.42 (≈ 1.03 µg/mL) | Stable | Stable
CC[C@H]1OC(=O)[C@H](C)[C@@H](O)[C@H](C)[C@@H](O[C@@H]2O[C@H](C)C[C@H](N(C)C(=O)Cc3ccccc3)[C@H]2O)[C@](C)(O)C[C@@H](C)CN(C)[C@H](C)[C@@H](O)[C@]1(C)O [Example 29, N-[(2S,3R,4S,6R)-2-[[(2R,3S,4R,5R,8R,10R,11R,12S,13S,14R)-2-ethyl-3,4,10,13-tetrahydroxy-3,5,6,8,10,12,14-heptamethyl-15-oxo-1-oxa-6-azacyclopentadec-11-yl]oxy]-3-hydroxy-6-methyl-tetrahydropyran-4-yl]-N-methyl-2-phenyl-acetamide] | 0.77 (≈ 0.535 µg/mL) | 2 % per hour | Stable
CC[C@H]1OC(=O)[C@H](C)[C@@H](O)[C@H](C)[C@@H](O[C@@H]2O[C@H](C)C[C@H](NC)[C@H]2O)[C@](C)(O)C[C@@H](C)CN(C)[C@H](C)[C@@H](O)[C@]1(C)O [Example 30, (2R,3S,4R,5R,8R,10R,11R,12S,13S,14R)-2-ethyl-3,4,10,13-tetrahydroxy-11-[(2S,3R,4S,6R)-3-hydroxy-6-methyl-4-(methylamino)tetrahydropyran-2-yl]oxy-3,5,6,8,10,12,14-heptamethyl-1-oxa-6-azacyclopentadecan-15-one] | 0.49 (≈ 0.283 µg/mL) | Stable | Stable
